Reference: patent publication US20160108039A1, “TRIAZOLOPYRIDINES AS THROMBIN INHIBITORS FOR THE TREATMENT OF THROMBOEMBOLIC DISEASES” (BAYER PHARMA AKTIENGESELLSCHAFT, priority 2013, published 2016)
pIC50: −log10 of the molar value.

How the values were obtained:
[1] = target: T1, thrombin (Homo sapiens, UniProt P00734); assay: Measurement of the thrombin inhibition in buffer; type: biochemical; settings: human thrombin 0.06 nmol/l in Tris buffer pH 7.4, 22° C., substrate Boc-Asp(OBzl)-Pro-Arg-AMC; in some cases means of individual determinations
Description: To determine the thrombin inhibition of the substances listed above, a biochemical test system is constructed in which the conversion of a thrombin substrate is used for determining the enzymatic activity of human thrombin. Here, thrombin cleaves aminomethylcoumarin, which is measured fluorescently, from the peptic substrate. The determinations are carried out in microtitre plates.
Substances to be tested are dissolved in various concentrations in dimethyl sulphoxide and incubated for 15 min with human thrombin (0.06 nmol/l dissolved in 50 mmol/l of Tris buffer [C,C,C-tris(hydroxymethyl)aminomethane], 100 mmol/l of sodium chloride, 0.1% BSA [bovine serum albumin], pH 7.4) at 22° C. The substrate (5 μmol/l Boc-Asp(OBzl)-Pro-Arg-AMC from Bachem) is then added. After 30 min of incubation, the sample is excited at a wavelength of 360 nm and the emission is measured at 460 nm. The measured emissions of the test mixtures with test substance are compared to the control mixtures without test substance (only dimethyl sulphoxide instead of test substance in dimethyl sulphoxide) and IC50 values are calculated from the concentration/activity relationships. Representative activity data from this test are given in Table 1 below (in some cases as means of individual determinations): […]

[2] = target: T1, thrombin; assay: Thrombin-inhibitory activity in plasma samples (ecarin-activated); type: biochemical; settings: citrate plasma, ecarin activation, fluorogenic thrombin substrate; read at about 70% of maximum signal (about 12 min); in some cases means
Description: To determine the inhibition of thrombin in plasma samples, plasma prothrombinase is activated by ecarin. Thrombin activity and/or its inhibition by potential inhibitors is/are then measured fluorescently by addition of a substrate.
The substances to be tested are dissolved in various concentrations in dimethyl sulphoxide and diluted with water. In white 96-well flat-bottomed plates, 20 μl of substance dilution are mixed with 20 μl of ecarin solution (ecarin reagent, from Sigma E-0504, final concentration 20 mU per reaction) in Ca buffer (200 mM Hepes+560 mM sodium chloride+10 mM calcium chloride+0.4% PEG) or with 20 μl of Ca buffer (as unstimulated control). Furthermore, 20 μl of fluorogenic thrombin substrate (from Bachem 1-1120, final concentration 50 μmol/l) and 20 μl of citrate plasma (from Octapharma) are added, and the mixture is homogenized well. The plate is measured in a SpectraFluorplus Reader using a 360 nm excitation filter and a 465 nm emission filter every minute over 20 minutes. […] Representative activity data from this test are given in Table 2 below (in some cases as means of individual determinations): […]

| Structure (SMILES) | pIC50 [1] | pIC50 [2] |
| --- | --- | --- |
| COc1cc(C(=O)N2CC(C)OCC2C(C)(C)O)cn2nc(NCc3cccc(Cl)c3)nc12 (single isomer, unassigned) [Example 40, {2-[(3-Chlorobenzyl)amino]-8-methoxy[1,2,4]triazolo[1,5-a]pyridin-6-yl}[5-(2-hydroxypropan-2-yl)-2-methylmorpholin-4-yl]methanone] | 7.51 | 7.12 |
| COc1cc(C(=O)N2CC(C)(CCO)OCC2CF)cn2nc(NCc3cccc(Cl)c3)nc12 (single isomer, unassigned) [Example 53, {2-[(3-Chlorobenzyl)amino]-8-methoxy[1,2,4]triazolo[1,5-a]pyridin-6-yl}[5-(fluoromethyl)-2-(2-hydroxyethyl)-2-methylmorpholin-4-yl]methanone] | 8.16 | 7.62 |
| COc1cc(C(=O)N2CC(C)(CCO)OCC2CF)cn2nc(NCc3cccc(Cl)c3)nc12 (single isomer, unassigned) [Example 54, {2-[(3-Chlorobenzyl)amino]-8-methoxy[1,2,4]triazolo[1,5-a]pyridin-6-yl}[5-(fluoromethyl)-2-(2-hydroxyethyl)-2-methylmorpholin-4-yl]methanone] | 7.00 | 6.21 |
| COc1cc(C(=O)N2CC(C)(CCO)OCC2C(F)F)cn2nc(NCc3cccc(Cl)c3)nc12 (single isomer, unassigned) [Example 55, {[(3-Chlorobenzyl)amino]-8-methoxy[1,2,4]triazolo[1,5-a]pyridin-6-yl}[5-(difluoromethyl)-2-(2-hydroxyethyl)-2-methylmorpholin-4-yl]methanone] | 8.02 | 7.19 |
| CCC1C(=O)N2CCC2CN1C(=O)c1cc(OC)c2nc(NCc3cccc(Cl)c3)nn2c1 (single isomer, unassigned) [Example 59, 4-({2-[(3-Chlorobenzyl)amino]-8-methoxy[1,2,4]triazolo[1,5-a]pyridin-6-yl}carbonyl)-3-ethyl-1,4-diazabicyclo[4.2.0]octan-2-one] | 8.08 | 7.96 |
| COCC1C(=O)N2CCC2CN1C(=O)c1cc(OC)c2nc(NCc3cccc(Cl)c3)nn2c1 (single isomer, unassigned) [Example 60, 4-({2-[(3-Chlorobenzyl)amino]-8-methoxy[1,2,4]triazolo[1,5-a]pyridin-6-yl}carbonyl)-3-(methoxymethyl)-1,4-diazabicyclo[4.2.0]octan-2-one] | 7.59 | 7.64 |
| COc1cc(C(=O)N2CC3CCN3C(=O)C2C)cn2nc(NCc3cccc(Cl)c3)nc12 (single isomer, unassigned) [Example 61, 4-({2-[(3-Chlorobenzyl)amino]-8-methoxy[1,2,4]triazolo[1,5-a]pyridin-6-yl}carbonyl)-3-methyl-1,4-diazabicyclo[4.2.0]octan-2-one] | 7.64 | 7.77 |
| COc1cc(C(=O)N2CC3(CC3)NC(=O)C2C)cn2nc(NCc3cccc(Cl)c3)nc12 (single isomer, unassigned) [Example 62, 7-({2-[(3-Chlorobenzyl)amino]-8-methoxy[1,2,4]triazolo[1,5-a]pyridin-6-yl}carbonyl)-6-methyl-4,7-diazaspiro[2.5]octan-5-one] | 7.77 | 7.41 |
| CCC1C(=O)NC(C)CN1C(=O)c1cc(OC)c2nc(NCc3cccc(Cl)c3)nn2c1 (single isomer, unassigned) [Example 63, 4-({2-[(3-Chlorobenzyl)amino]-8-methoxy[1,2,4]triazolo[1,5-a]pyridin-6-yl}carbonyl)-3-ethyl-6-methylpiperazin-2-one] | 8.01 | 7.62 |
| COc1cc(C(=O)N2CC(C)(C)OCC2C2(O)CC2)cn2nc(NCc3cccc(Cl)c3)nc12 (single isomer, unassigned) [Example 67, {2-[(3-Chlorobenzyl)amino]-8-methoxy[1,2,4]triazolo[1,5-a]pyridin-6-yl}[5-(1-hydroxycyclopropyl)-2,2-dimethylmorpholin-4-yl]methanone] | 7.32 | 7.05 |

Next, values leading:

| pIC50 [1] | pIC50 [2] | Structure (SMILES) |
| --- | --- | --- |
| 8.62 | 8.06 | COc1cc(C(=O)N2CC(C)(CC(C)O)OCC2(C)C)cn2nc(NCc3cccc(Cl)c3)nc12 (single isomer, unassigned) [Example 35, {2-[(3-Chlorobenzyl)amino]-8-methoxy[1,2,4]triazolo[1,5-a]pyridin-6-yl}[2-(2-hydroxypropyl)-2,5,5-trimethylmorpholin-4-yl]methanone] |
| 7.27 | 6.49 | COc1cc(C(=O)N2CC(C)(CC(C)O)OCC2(C)C)cn2nc(NCc3cccc(Cl)c3)nc12 (single isomer, unassigned) [Example 36, {2-[(3-Chlorobenzyl)amino]-8-methoxy[1,2,4]triazolo[1,5-a]pyridin-6-yl}[2-(2-hydroxypropyl)-2,5,5-trimethylmorpholin-4-yl]methanone] |
| 7.17 | 6.95 | COc1cc(C(=O)N2CC(C)(CC(C)O)OCC2(C)C)cn2nc(NCc3cccc(Cl)c3)nc12 (single isomer, unassigned) [Example 37, {2-[(3-Chlorobenzyl)amino]-8-methoxy[1,2,4]triazolo[1,5-a]pyridin-6-yl}[2-(2-hydroxypropyl)-2,5,5-trimethylmorpholin-4-yl]methanone] |
| 7.52 | 7.47 | COc1cc(C(=O)N2CC(C)(CC(C)O)OCC2(C)C)cn2nc(NCc3cccc(Cl)c3)nc12 (single isomer, unassigned) [Example 39, {2-[(3-Chlorobenzyl)amino]-8-methoxy[1,2,4]triazolo[1,5-a]pyridin-6-yl}[2-(2-hydroxypropyl)-2,5,5-trimethylmorpholin-4-yl]methanone] |
| 8.89 | 8.39 | COc1cc(C(=O)N2CC(C)(CC(C)O)OC[C@H]2C)cn2nc(NCc3cccc(Cl)c3)nc12 (single isomer, unassigned) [Example 41] |
| 7.72 | 7.62 | COc1cc(C(=O)N2CC(C)(C)OCC2CC(C)O)cn2nc(NCc3cccc(Cl)c3)nc12 (single isomer, unassigned) [Example 49, {2-[(3-Chlorobenzyl)amino]-8-methoxy[1,2,4]triazolo[1,5-a]pyridin-6-yl}[5-(2-hydroxypropyl)-2,2-dimethylmorpholin-4-yl]methanone] |
| 8.89 | 8.23 | COc1cc(C(=O)N2CC(C)(CC(C)O)OCC2CF)cn2nc(NCc3cccc(Cl)c3)nc12 (single isomer, unassigned) [Example 56, {[(3-Chlorobenzyl)amino]-8-methoxy[1,2,4]triazolo[1,5-a]pyridin-6-yl}[5-(fluoromethyl)-2-(2-hydroxypropyl)-2-methylmorpholin-4-yl]methanone] |
| 7.60 | 7.62 | COc1cc(C(=O)N2CC(C)(C)OCC2C(C)(C)O)cn2nc(NCc3cccc(Cl)c3)nc12 (single isomer, unassigned) [Example 66, {2-[(3-Chlorobenzyl)amino]-8-methoxy[1,2,4]triazolo[1,5-a]pyridin-6-yl}[5-(2-hydroxypropan-2-yl)-2,2-dimethylmorpholin-4-yl]methanone] |
| 7.31 | 6.97 | COc1cc(C(=O)N2CC(C)(C)OCC2C(C)O)cn2nc(NCc3cccc(Cl)c3)nc12 (single isomer, unassigned) [Example 68, {2-[(3-Chlorobenzyl)amino]-8-methoxy[1,2,4]triazolo[1,5-a]pyridin-6-yl}[5-(1-hydroxyethyl)-2,2-dimethylmorpholin-4-yl]methanone] |
